Target: T1, fibrin gels (40 mg/mL fibrinogen, 33 U/mL thrombin) (Homo sapiens, UniProt P02671+P02675+P02679)
T1 construct: purchased Ethicon (Evicel)
T1 sequence (P02671 20-644 isoform P02671-2 limits assumed): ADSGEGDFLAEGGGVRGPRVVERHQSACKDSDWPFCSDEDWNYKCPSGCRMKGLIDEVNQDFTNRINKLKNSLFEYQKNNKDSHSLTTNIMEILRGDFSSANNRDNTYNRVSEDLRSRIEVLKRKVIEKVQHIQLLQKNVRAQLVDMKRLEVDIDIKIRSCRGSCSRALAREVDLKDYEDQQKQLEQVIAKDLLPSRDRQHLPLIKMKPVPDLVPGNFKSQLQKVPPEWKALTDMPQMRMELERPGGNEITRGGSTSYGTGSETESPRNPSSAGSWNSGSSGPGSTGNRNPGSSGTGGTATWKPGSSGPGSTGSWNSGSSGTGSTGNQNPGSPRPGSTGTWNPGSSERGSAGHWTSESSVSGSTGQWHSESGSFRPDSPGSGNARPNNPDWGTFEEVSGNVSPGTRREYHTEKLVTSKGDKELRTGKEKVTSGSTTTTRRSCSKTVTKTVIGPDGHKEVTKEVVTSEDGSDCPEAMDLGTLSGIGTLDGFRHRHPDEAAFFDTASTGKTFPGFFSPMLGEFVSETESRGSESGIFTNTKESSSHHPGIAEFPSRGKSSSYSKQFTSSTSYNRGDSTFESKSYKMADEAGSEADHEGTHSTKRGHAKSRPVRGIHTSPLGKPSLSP
T1 sequence (P02675 45-491 limits assumed): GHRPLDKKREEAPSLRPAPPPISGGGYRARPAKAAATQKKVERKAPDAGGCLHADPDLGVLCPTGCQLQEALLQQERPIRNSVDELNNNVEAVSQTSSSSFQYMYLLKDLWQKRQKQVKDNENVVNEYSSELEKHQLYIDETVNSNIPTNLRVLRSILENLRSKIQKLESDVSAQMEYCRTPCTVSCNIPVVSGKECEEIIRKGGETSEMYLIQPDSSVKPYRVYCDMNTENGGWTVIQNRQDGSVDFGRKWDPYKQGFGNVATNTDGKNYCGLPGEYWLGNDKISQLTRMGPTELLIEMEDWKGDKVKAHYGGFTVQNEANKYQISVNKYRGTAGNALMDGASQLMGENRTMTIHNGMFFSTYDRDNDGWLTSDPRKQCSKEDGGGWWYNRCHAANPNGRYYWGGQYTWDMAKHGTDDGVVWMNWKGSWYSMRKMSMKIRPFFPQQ
T1 sequence (P02679 27-437 isoform P02679-2 limits assumed): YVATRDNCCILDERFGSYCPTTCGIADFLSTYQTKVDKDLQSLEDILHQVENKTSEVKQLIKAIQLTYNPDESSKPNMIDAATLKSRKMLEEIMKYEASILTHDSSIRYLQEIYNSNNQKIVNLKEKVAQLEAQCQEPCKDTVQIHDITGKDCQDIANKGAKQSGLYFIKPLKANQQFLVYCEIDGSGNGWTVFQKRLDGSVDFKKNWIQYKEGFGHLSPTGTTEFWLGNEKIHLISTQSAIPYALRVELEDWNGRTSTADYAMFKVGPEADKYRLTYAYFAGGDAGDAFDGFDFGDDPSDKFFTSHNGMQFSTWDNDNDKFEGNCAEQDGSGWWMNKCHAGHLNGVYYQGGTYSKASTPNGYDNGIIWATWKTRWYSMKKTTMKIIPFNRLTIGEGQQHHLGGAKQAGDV
Assay: Rheometry gelation time, polymerization time and shear modulus, higher fibrinogen concentration fibrin gels
Type: biochemical
Details: 0.12% w/v dye, n=3; for final shear modulus (g′): strain sweep after 2 hour time sweep
Experimental: The viscoelastic mechanical properties of fibrin gels were characterized using oscillatory shear rheology on a Discovery Hybrid Rheometer 2 (TA Instruments; New Castle, DE) with a 20 mm cone-and-plate geometry at a 1° angle and a 20 mm stage. Inertia, friction, and rotational mapping calibrations were performed prior to each experiment. A Peltier temperature-controlled stage maintained 37° C. and a solvent trap was used to control evaporation during experiments lasting longer than 20 minutes. Gels were prepared by mixing specified concentrations of fibrinogen, dye, and thrombin on the stage. Immediately after combining, the geometry head was lowered to 500 μm (˜1-3 seconds) before beginning the first experiment. Gelation kinetics were monitored in time sweeps at 1% strain and 10 rad/s angular frequency. Strain sweeps were measured from 0.01-1000% strain at 1 Hz frequency. A frequency sweeps measured from 0.01-3 Hz at 1% strain was used to confirmed fibrin independence of frequency.
To determine the final polymerization time and resultant shear modulus, a final concentration of 40 mg/mL fibrinogen, 33 U/mL thrombin, and 0.12% w/v dye was used to simulate fibrin scaffold parameters described elsewhere (see, e.g., Gandhi et al., 2018 Acta Biomater., 67:134-46). A time sweep was performed for 2 hours, and the strain sweep was measured following the time sweep to confirm final polymerization had occurred. The shear modulus was determined by averaging values within the linear region of the strain sweep (between 0.01% and 0.5% strain). A 95% confidence interval was defined for the final shear modulus and the lower range value was used as the threshold to determine the final polymerization time.
With confirming that both TB and EB, but not PEG, cause a substantial increase in gelation time, polymerization time was measured. The polymerization time is the total time for the hydrogel to fully form with no remaining soluble fibrin monomer. Functionally, this is defined as the point at which the shear modulus no longer changes. Quantitatively, this is defined at the point at which the g′ reaches its maximum and plateaus over time.
To test if the inclusion of TB and EB would alter the polymerization time, the previous rheometry setup was used over a longer range of time. Unfortunately, evaporative effects were detected as early as 2 hours. […] The surface was sticky, and the presence of non-cross-linked fibrin was evident. To measure polymerization time reliably, the fibrinogen and thrombin concentrations were increased. A 40 mg/mL fibrinogen and 33 U/mL thrombin final concentration is capable of fully polymerizing within 2 hours (see, e.g., Gandhi et al., Acta Biomater., 67:134-46 (2018)). As such, the rheometry experiment were repeated at these concentrations. A final concentration of 0.12% w/v for TB, EB and PEG was used.
Both PBS and PEG groups show g′ values greater than g″ values at the first detectable time point (12 seconds), showing that both groups had already past the initial gelation time. TB and EB show a delay in gelation but appear to quickly approach the PBS and PEG groups. Near the 1000 sec mark, all four groups appear to show a similar growth of g′ overtime. A strain sweep was measured at the end of the time sweep to confirm that the gel had completed polymerization within the 2 hour time frame. Shear modulus values from the linear portion of the strain sweep were verified with rheological data described elsewhere (see, e.g., Wedgwood et al., Macromolecular Symposia, 334:117-25 (2013); and Moreno-Arotzena et al., Materials (Basel), 8:1636-51 (2015)), and used to determine the final gel shear modulus. Using this shear modulus value, the polymerization time for each sample was calculated. The polymerization times for PBS, TB, EB, and PEG groups were 97.0±14.9, 94.6±8.3, 106.2±10.7, 93.8±17.0 minutes (n=3, p=0.654) (FIG. 8B).

Row | Structure (SMILES) | gelation time [s] | polymerization time [min] | final shear modulus (g′) [Pa]
1 | Cc1cc(-c2ccc(/N=N/c3ccc4c(S(=O)(=O)O)cc(S(=O)(=O)O)c(N)c4c3O)c(C)c2)ccc1/N=N/c1ccc2c(S(=O)(=O)O)cc(S(=O)(=O)O)c(N)c2c1O [EB, Evans Blue] | 89.6 ± 17.9 | 106.2 ± 10.7 | 2077±441
2 | Cc1cc(-c2ccc(/N=N/c3c(S(=O)(=O)O)cc4cc(S(=O)(=O)O)cc(N)c4c3O)c(C)c2)ccc1/N=N/c1c(S(=O)(=O)O)cc2cc(S(=O)(=O)O)cc(N)c2c1O [TB, Trypan Blue] | 42.4 ± 19.4 | 94.6 ± 8.3 | 2197±221

Reference: US20230414826A1, “FIBRIN HYDROGELS” (Mayo Foundation for Medical Education and Research, priority 2020, published 2023)
